From patent publication US9226506B2, “Methods of weed control in chicory” (Dow AgroSciences LLC, priority 2013, dated 2016)

Columns and labels:
[1] = test system: chicory (varieties Ecrine, Hermès); assay: Chicory leaf development after post-emergence applications; parameters: species or system Cichorium intybus; conditions: in vivo
Method: (§1) Field trials were conducted in Northern France and Belgium, both of which are major areas for root chicory and whitloof chicory production. Trials were conducted in accordance with EPPO standard PP 1/99(3) entitled “Weeds in Roots Vegetables,” PP 1/152(4) entitled “Design and Analysis of Efficacy Evaluation Trials,” PP 1/135(3) entitled “Phytotoxic Assessment,” and PP 1/181(4) entitled “Conduct and Reporting of Efficacy Evaluation Trials Including Good Experimental Practice,” all of which are incorporated herein by reference in their entirety.
(§2) Application to all field trials was made using a small plot precision sprayer operating at between 160-400 kilopascals (kPa) pressure, delivering a spray volume of 150-400 liters per hectare (L/ha). Nozzles were of a flat fan type. Trial plot size ranged from 4.5×2.5 square meters (m^2) to 10.5×2.5 m^2. Plots were replicated 3 or 4 times and were arranged in a randomized block design within each trial. […]
(§3) In whitloof chicory (Cichorium intybus), treatments were evaluated which included either two or three post-emergence applications of herbicide. Multiple applications of herbicide were evaluated for their ability to control weed emergence during the extended period of time required for chicory cultivation. […]

[2] = test system: chicory (varieties Ecrine, Hermès); assay: Yield of chicons after forcing; assay type: in vivo, Cichorium intybus; conditions: 171 DAAC and 21 days after start of forcing; for Yield of Chicons, Brut, Average / Yield of Chicons, Brut, Ecrine / Yield of Chicons, Brut, Hermès: total weight of chicons; for Yield of Chicons, Brut, Average: average of both varieties; for Yield of Chicons, Extra + 1, Ecrine / Yield of Chicons, Extra + 1, Hermès: weight of Extra and First Class chicons; for Yield of Chicons, Net, Ecrine / Yield of Chicons, Net, Hermès: weight of marketable chicons
Method: Trials were also performed to investigate the effect of post-emergence applications of penoxsulam or SAFARI® (triflusulfuron-methyl) on the yield of chicons in two different varieties of chicory. The trial was carried out on plots measuring 3×5 meters. Two varieties of chicory (Hermes and Ecrine) were sown. Treatments were carried out, as described above (a) 18 days after sowing, (b) 25 days after sowing, and (c) 32 days after sowing. Trial assessments were carried out 21 DAAC and 46 DAAC on the number of plants per linear meter, and on their development stage (number of leaves per plant).
Harvest was carried out 171 DAAC on 4 rows per plot. After harvest, the roots were counted and weighted, and the percent of roots usable for forcing was measured. The roots were then stored in a conservation room for 21 days until start of forcing phase. After 21 days of forcing, the chicons produced were weighed and classified in the commercial quality categories. The brut yield (total weight of chicons produced; marketable+non-marketable), net yield (weight of marketable chicons produced) and best class yield (Extra+1=weight of Extra and First Class chicons produced) were measured (in kilograms per 10 square meters (kg/10 m^2)).

[3] = test system: chicory (varieties Ecrine, Hermès); assay: Chicory root development (number of roots) after post-emergence applications; assay type: in vivo, Cichorium intybus; conditions: treatment with penoxsulam in chicory field trials
Method: Field trials were conducted in Northern France and Belgium, both of which are major areas for root chicory and whitloof chicory production. Trials were conducted in accordance with EPPO standard PP 1/99(3) entitled “Weeds in Roots Vegetables,” PP 1/152(4) entitled “Design and Analysis of Efficacy Evaluation Trials,” PP 1/135(3) entitled “Phytotoxic Assessment,” and PP 1/181(4) entitled “Conduct and Reporting of Efficacy Evaluation Trials Including Good Experimental Practice,” all of which are incorporated herein by reference in their entirety. […]
as §3
Harvest was carried out 171 DAAC on 4 rows per plot. After harvest, the roots were counted and weighted, and the percent of roots usable for forcing was measured. […] The brut yield (total weight of chicons produced; marketable+non-marketable), net yield (weight of marketable chicons produced) and best class yield (Extra+1=weight of Extra and First Class chicons produced) were measured (in kilograms per 10 square meters (kg/10 m^2)).

[4] = test system: chicory; parameters: species or system Cichorium intybus; conditions: in vivo
Method: as §1, §2, §3

[5] = test system: undesirable vegetation; assay: Weed control field trials, overall statement; assay type: in vivo; conditions: applied post-emergence to the crop and weeds
Method: as §1
Application to all field trials was made using a small plot precision sprayer operating at between 160-400 kilopascals (kPa) pressure, delivering a spray volume of 150-400 liters per hectare (L/ha). Nozzles were of a flat fan type. Trial plot size ranged from 4.5×2.5 square meters (m^2) to 10.5×2.5 m^2. […]
as §3
3) Following treatments, the remaining plants were weighed to determine the mass per plant (expressed as g/plant) one month after the last pesticide application. […]

`COc1cnc(OC)n2nc(NS(=O)(=O)c3c(OCC(F)F)cccc3C(F)(F)F)nc12` [Penoxsulam] was tested, and the “Average number of leaves (measured 21 DAAC) Average” value [1] was 7 a, the “Yield of Chicons, Brut, Average” value ([2]; 5/5/5 g ai/ha) was 40.7 Kg/10 m^2 and the “Yield of Chicons, Brut, Average” value ([2]; 7.5/7.5/7.5 g ai/ha) was 40.8 Kg/10 m^2. The “Yield of Chicons, Brut, Average” value ([2]; 7.5/7.5 g ai/ha) was 39.6 Kg/10 m^2, the “Yield of Chicons, Brut, Average” value ([2]; 10/10/10 g ai/ha) was 45.1 Kg/10 m^2 and the “Yield of Chicons, Brut, Average” value ([2]; 11.2/11.2 g ai/ha) was 39.9 Kg/10 m^2. For the same molecule, the “Yield of Chicons, Brut, Average” value ([2]; 15/15 g ai/ha) was 39.9 Kg/10 m^2, the “Yield of Chicons, Brut, Ecrine” value ([2]; 5/5/5 g ai/ha) was 47.5 Kg/10 m^2 and the “Yield of Chicons, Brut, Hermès” value ([2]; 5/5/5 g ai/ha) was 33.8 Kg/10 m^2. For the same molecule, the “Yield of Chicons, Brut, Ecrine” value ([2]; 7.5/7.5/7.5 g ai/ha) was 45.1 Kg/10 m^2, the “Yield of Chicons, Brut, Hermès” value ([2]; 7.5/7.5/7.5 g ai/ha) was 36.5 Kg/10 m^2 and the “Yield of Chicons, Brut, Ecrine” value ([2]; 7.5/7.5 g ai/ha) was 42.4 Kg/10 m^2. The “Yield of Chicons, Brut, Hermès” value ([2]; 7.5/7.5 g ai/ha) was 36.7 Kg/10 m^2, the “Yield of Chicons, Brut, Ecrine” value ([2]; 10/10/10 g ai/ha) was 50.7 Kg/10 m^2 and the “Yield of Chicons, Brut, Hermès” value ([2]; 10/10/10 g ai/ha) was 39.4 Kg/10 m^2. For the same molecule, the “Yield of Chicons, Brut, Ecrine” value ([2]; 11.2/11.2 g ai/ha) was 42.8 Kg/10 m^2, the “Yield of Chicons, Brut, Hermès” value ([2]; 11.2/11.2 g ai/ha) was 37 Kg/10 m^2 and the “Yield of Chicons, Brut, Ecrine” value ([2]; 15/15 g ai/ha) was 46.4 Kg/10 m^2. The “Yield of Chicons, Brut, Hermès” value ([2]; 15/15 g ai/ha) was 33.4 Kg/10 m^2, the “Yield of Chicons, Extra + 1, Ecrine” value ([2]; 5/5/5 g ai/ha) was 29 Kg/10 m^2 and the “Yield of Chicons, Extra + 1, Hermès” value ([2]; 5/5/5 g ai/ha) was 17.7 Kg/10 m^2. For the same molecule, the “Yield of Chicons, Extra + 1, Ecrine” value ([2]; 7.5/7.5/7.5 g ai/ha) was 27.2 Kg/10 m^2, the “Yield of Chicons, Extra + 1, Hermès” value ([2]; 7.5/7.5/7.5 g ai/ha) was 18.6 Kg/10 m^2 and the “Yield of Chicons, Extra + 1, Ecrine” value ([2]; 7.5/7.5 g ai/ha) was 28.2 Kg/10 m^2. The “Yield of Chicons, Extra + 1, Hermès” value ([2]; 7.5/7.5 g ai/ha) was 21.1 Kg/10 m^2, the “Yield of Chicons, Extra + 1, Ecrine” value ([2]; 10/10/10 g ai/ha) was 29.5 Kg/10 m^2 and the “Yield of Chicons, Extra + 1, Hermès” value ([2]; 10/10/10 g ai/ha) was 19.2 Kg/10 m^2. The “Yield of Chicons, Extra + 1, Ecrine” value ([2]; 11.2/11.2 g ai/ha) was 25 Kg/10 m^2, the “Yield of Chicons, Extra + 1, Hermès” value ([2]; 11.2/11.2 g ai/ha) was 22.8 Kg/10 m^2 and the “Yield of Chicons, Extra + 1, Ecrine” value ([2]; 15/15 g ai/ha) was 30.7 Kg/10 m^2. For the same molecule, the “Yield of Chicons, Extra + 1, Hermès” value ([2]; 15/15 g ai/ha) was 16.1 Kg/10 m^2, the “Yield of Chicons, Net, Ecrine” value ([2]; 5/5/5 g ai/ha) was 36.4 Kg/10 m^2 and the “Yield of Chicons, Net, Hermès” value ([2]; 5/5/5 g ai/ha) was 25.6 Kg/10 m^2. The “Yield of Chicons, Net, Ecrine” value ([2]; 7.5/7.5/7.5 g ai/ha) was 34.6 Kg/10 m^2, the “Yield of Chicons, Net, Hermès” value ([2]; 7.5/7.5/7.5 g ai/ha) was 25.7 Kg/10 m^2 and the “Yield of Chicons, Net, Ecrine” value ([2]; 7.5/7.5 g ai/ha) was 33.9 Kg/10 m^2. For the same molecule, the “Yield of Chicons, Net, Hermès” value ([2]; 7.5/7.5 g ai/ha) was 26.6 Kg/10 m^2, the “Yield of Chicons, Net, Ecrine” value ([2]; 10/10/10 g ai/ha) was 38.7 Kg/10 m^2 and the “Yield of Chicons, Net, Hermès” value ([2]; 10/10/10 g ai/ha) was 27.7 Kg/10 m^2. The “Yield of Chicons, Net, Ecrine” value ([2]; 11.2/11.2 g ai/ha) was 33.2 Kg/10 m^2, the “Yield of Chicons, Net, Hermès” value ([2]; 11.2/11.2 g ai/ha) was 28.6 Kg/10 m^2 and the “Yield of Chicons, Net, Ecrine” value ([2]; 15/15 g ai/ha) was 37.4 Kg/10 m^2. The “Yield of Chicons, Net, Hermès” value ([2]; 15/15 g ai/ha) was 22.5 Kg/10 m^2, the “effect on root yield” value [3] was “no deleterious effect on root yield” and the crop tolerance [4] was “commercially acceptable crop tolerance”. The visible crop injury [4] was “some visible crop injury” and the “control of undesirable vegetation” value [5] was “good control of undesirable vegetation”.
